Values joined by “and” are separate entries in the source; they are usually repeats but may differ in a detail not shown here. Identical values can stand only once.
Experiments:
[1] = In vivo pharmacokinetic analysis, brain levels after oral gavage; parameters: species or system C57BL/6J mice; settings: for brain levels: single time point one hour, oral gavage 30 mg/Kg, n = 1
Protocol: […] One hour later, mice were euthanized by pentobarbital over-anesthesia and trans-cardial collection of blood for isolation of plasma by centrifugation at 10,000 x g for 10 min at 4 °C. Brain tissue was collected for analysis, frozen on dry ice and stored at -80 °C before analysis.
For LC/MS/MS analysis, tissue samples were homogenized in a bead beater using 5 volumes of ice-cold 80% acetonitrile (1/5; mg of tissue/ µL of 80% ACN). Solutions were clarified by centrifugation (16,000 x g, 5 min) and the supernatants were transferred to new tubes and lyophilized. Samples were reconstituted in 100 µL of 50/50/0.1 (water/acetonitrile/formic acid) before analysis via liquid chromatography-tandem mass spectrometry.
A 6460 triple quadrupole mass spectrometer (Agilent Technologies) coupled to a 1290 Infinity HPLC system (Agilent Technologies) with a Phenomenex analytical column (Kinetex 1.7 μm C18 100 Å 100 × 2.1 mm) was used for HPLC. The HPLC method utilized a mixture of solvent A (99.9/1 water/formic acid) and solvent B (99.9/1 acetonitrile/formic acid) and a gradient was used for the elution of the compounds (min/%B: 0/20, 3/20, 19/99, 20/99, 21/20, 30/20).
An internal standard (IS; Reserpine) was added to every sample to account for compound loss during sample processing. Standards were made in drug naïve brain and plasma with increasing amounts of DDL-214- (S1,S2: 0.1 pmol/ S3,S4: 1 pmol/ S5,S6: 10 pmol/ S7,S8: 100 pmol/ S9,S10: 1000 pmol). The standard curve was made by plotting the amount of each compound per standard vs. the ratio of measured chromatographic peak areas corresponding to DDL-214 (DDL-214 -/Reserpine). The trendline equation was then used to calculate the absolute concentrations of DDL-214/-218/-219 in brain tissue and plasma.

[2] = Observation of mice behavior in the PK study; format: in vivo; settings: oral gavage 10 or 30 mg/Kg
Protocol: C57BL/6J mice were administered DDL-214, -218, or -219 (n = 3 per compound) by oral gavage at a dose of 30 mg/kg in a volume of 5 mL/Kg based on mouse weight. One hour later, mice were euthanized by pentobarbital over-anesthesia and trans-cardial collection of blood for isolation of plasma by centrifugation at 10,000 x g for 10 min at 4 °C. Brain tissue was collected for analysis, frozen on dry ice and stored at -80 °C before analysis.

[3] = test system: SirT1 protein in N2a-E4 cells; experiment: SirT1 protein levels in N2a-E4 cells (AlphaLISA); format: cell-based, murine; settings: N2a-E4 cells, 5 µM, 24 h, vs DMSO control
Protocol: Relative SirT1 mRNA and protein enhancement by racemate DDL-214 and enantiomers DDL-218 and − 219 was determined in murine neuroblastoma cells stably transfected with ApoE4 (N2a-E4)[25]. All test compounds in DMSO were prepared at 2x the final concentration in DMEM supplemented with 10% fetal bovine serum (FBS) and 1% pen-strep (PS) and 50 µL of each loaded into individual wells of a 96-well plate. Previously cultured N2a-E4 were then trypsinized, harvested, centrifuged, and counted; then 50 µL of cell suspension adjusted to 400 cells/µL was added to each well. The plate was then incubated at 37 °C, 5% CO2 for 48 h. Cells were treated with DDL-214, DDL-218, or DDL-219 at 5 µM final then incubated for 24 h. After incubation, the cells were lysed with 50 µL of ice-cold lysis buffer (0.4% SDS, 3.5% Triton X-100, 0.02% sodium deoxycholate, 28 mM TRIS pH 8) complemented with 1X final Halt™ Protease and Phosphatase Inhibitor Cocktail (Thermo Fisher catalog # 78442), placed on ice for 10 min and at -80 °C, followed by 3 freeze/thaw cycles.
An AlphaLISA comprising streptavidin donor beads (Revvity catalog # 6760002 S), biotinylated anti-SirT1 N-terminal antibody (monoclonal 19A7AB4, Abcam catalog # ab110304), and acceptor beads (Revvity catalog # 6772001) conjugated to the anti-SirT1 C-terminal antibody (monoclonal 1F3, Abcam catalog # ab104833) was used to determine SirT1 protein levels. […] The plates were read using an Envision plate reader.
Figure S3B. […] Compound treatment was done at 5 and 50 µM. SirT1 levels were measured by AlphaLISA followed and normalized to protein […]
Brain tissue was homogenized in PBS (pH 7.4) (1: 3 weight(mg)/volume(µL)) and the protein concentration of was determined using the Micro BCA™ Protein Assay Kit (Thermo Fisher Scientific, Cat#23235). […]
The % of the unbound drug (fu,bound) was calculated using the following equation: fu,bound = [normalized peak area in buffer side / normalized peak area in brain side] x 100 Liver Microsome Stability [t1/2 (min)] […]

[4] = test system: SirT1 mRNA in Kelly cells; experiment: SirT1 mRNA in Kelly neuroblastoma cells; format: cell-based, human; settings: 5 µM, 24 h, vs DMSO control
Protocol: Human neuroblastoma ‘Kelly’ cells (genotype APOE3/APOE4) were plated in 96-well plates at 50K cells per well and were grown overnight in RPMI 1640 supplemented with 2 mM Glutamine, 10% FBS and 1% Pen-Strep. Cells were treated with 5 µM DDL-214, -218, or -219; or DMSO vehicle (n = 8 per compound). Twenty-four hours later, medium was removed, cells washed and lysed as described above for N2a-E4 cells.
Total RNA was isolated from cells or brain tissue (Qiagen RNEasy kit). Total RNA (0.5–1.0 µg) mRNA was then converted to cDNA (SuperScript™ III First-Strand Synthesis SuperMix kit; Thermo Fisher), and gene mRNA levels were measured using a gene-specific qRT-PCR Taqman assays (Thermo Fisher). Gene mRNA levels were normalized to GAPDH mRNA levels measured either in the same cDNA sample or in the same qPCR reaction using multiplexing of gene-of-interest/VIC and GAPDH/FAM, normalized by the delta-delta-Ct method.

## CC(N)C(=O)OC(C)(C)Cc1ccncc1 (centres unmarked) [DDL-219]
[1]; 30 mg/kg
  brain levels: ~ 6500 ng/g and 29.2 µM
[2]
  changes in mice behavior indicative of drug-induced toxicity: No notable changes in mice behavior

## CC(N)C(=O)OC(C)(C)Cc1ccncc1 (centres unmarked) [DDL-214]
[3]
  SirT1 protein levels: increased SirT1 protein levels
[4]
  SirT1 mRNA: higher than DMSO control, but the difference was not significant
[1]; oral 30 mg/Kg, time course study, 30 mg/kg
  brain Cmax: ~ 9400 ng/g and 42.3 µM
[1]; oral gavage 10 mg/Kg, wildtype mouse, at one hour, 10 mg/kg
  brain Cmax: 1270 ng/g and 5.7 µM
[1]; 30 mg/kg
  brain levels: ~ 3000 ng/g and 13.5 µM
[2]
  changes in mice behavior indicative of drug-induced toxicity: No notable changes in mice behavior
